From ChEMBL document CHEMBL1135008, “17S,20S-Methanofusidic acid, a new potent semi-synthetic fusidane antibiotic” (2002)
Converted amounts (≈) assume the structure as drawn.

Assays:
Type in all cases: functional
Micrococcus luteus = assay: Compound was tested for its antibacterial activity against Micrococcus luteus ATCC 9341
Staphylococcus aureus [1] = assay: Compound was tested for its antibacterial activity against Staphylococcus aureus ATCC 2977
Escherichia coli = assay: Compound was tested for its antibacterial activity against Escherichia coli HA 44
[2] = tested on: Staphylococcus epidermidis; assay: Compound was tested for its antibacterial activity against Staphylococcus epidermidis ATCC 12228
[3] = tested on: Geobacillus stearothermophilus; assay: Compound was tested for its antibacterial activity against Bacillus stearothermophilus KG 5
Bacillus cereus = assay: Compound was tested for its antibacterial activity against Bacillus cereus ATCC 10876
Clostridium perfringens = assay: Compound was tested for its antibacterial activity against Clostridium perfringens KT 13
Streptococcus sp. [4] = assay: Compound was tested for its antibacterial activity against Streptococcus sp. EG 14
Streptococcus pyogenes = assay: Compound was tested for its antibacterial activity against Streptococcus pyogenes EC
[5] = tested on: Lactiplantibacillus plantarum; assay: Compound was tested for its antibacterial activity against Lactobacillus plantarum ATCC 8014
Staphylococcus aureus [6] = assay: Compound was tested for its antibacterial activity against Staphylococcus aureus CJ 232 (MRSA)
Enterococcus faecalis = assay: Compound was tested for its antibacterial activity against Enterococcus faecalis ATCC 10541
Enterococcus faecium = assay: Compound was tested for its antibacterial activity against Enterococcus faecium EI 119, penicillin resistant
Pseudomonas aeruginosa = assay: Compound was tested for its antibacterial activity against Pseudomonas aeruginosa ATCC 10145
Cutibacterium acnes = assay: Compound was tested for its antibacterial activity against Propionibacterium acnes NCTC 737
Streptococcus sp. [7] = assay: Compound was tested for its antibacterial activity against Streptococcus sp. EF 6
Corynebacterium xerosis = assay: Compound was tested for its antibacterial activity against Corynebacterium xerosis NCTC 9755
[8] = tested on: Staphylococcus epidermidis; assay: Antimicrobial evaluation revealed potent activity against several Gram positive bacteria (Staphylococcus epidermidis ATCC 12228)

Row | Compound | MIC (Micrococcus luteus) | MIC (Staphylococcus aureus [1]) | MIC (Escherichia coli) | MIC [2] | MIC [3] | MIC (Bacillus cereus) | MIC (Clostridium perfringens) | MIC (Streptococcus sp. [4]) | MIC (Streptococcus pyogenes) | MIC [5] | MIC (Staphylococcus aureus [6]) | MIC (Enterococcus faecalis) | MIC (Enterococcus faecium) | MIC (Pseudomonas aeruginosa) | MIC (Cutibacterium acnes) | MIC (Streptococcus sp. [7]) | MIC (Corynebacterium xerosis) | MIC [8]
1 | CC(=O)O[C@H]1C[C@@]2(C)C(C[C@@H](O)[C@H]3[C@@]4(C)CC[C@@H](O)[C@@H](C)[C@@H]4CC[C@@]32C)/C1=C(\CCC=C(C)C)C(=O)O (some centres undefined) | 1 µg/mL (≈ 1.94 µM) | 0.006 µg/mL (≈ 0.0116 µM) | > 125 µg/mL | 0.001 µg/mL (≈ 0.00194 µM) | 0.03 µg/mL (≈ 0.0581 µM) | 4 µg/mL (≈ 7.74 µM) | 16 µg/mL (≈ 31 µM) | 16 µg/mL (≈ 31 µM) | 4 µg/mL (≈ 7.74 µM) | 4 µg/mL (≈ 7.74 µM) | 0.015 µg/mL (≈ 0.029 µM) | 4 µg/mL (≈ 7.74 µM) | 0.02 µg/mL (≈ 0.0387 µM) | 1 µg/mL (≈ 1.94 µM) | 0.02 µg/mL (≈ 0.0387 µM) | 4 µg/mL (≈ 7.74 µM) | 0.04 µg/mL (≈ 0.0774 µM) | –
2 | CC(=O)O[C@H]1C[C@@]2(C)C(C[C@@H](O)[C@H]3[C@@]4(C)CC[C@@H](O)[C@@H](C)C4CC[C@@]32C)[C@]12C[C@]2(CCC=C(C)C)C(=O)O (some centres undefined) | 0.25 µg/mL (≈ 0.471 µM) | 0.003 µg/mL (≈ 0.00565 µM) | > 125 µg/mL | – | 0.03 µg/mL (≈ 0.0565 µM) | 1 µg/mL (≈ 1.88 µM) | 16 µg/mL (≈ 30.1 µM) | 63 µg/mL (≈ 119 µM) | 16 µg/mL (≈ 30.1 µM) | 63 µg/mL (≈ 119 µM) | 0.014 µg/mL (≈ 0.0264 µM) | 16 µg/mL (≈ 30.1 µM) | 0.02 µg/mL (≈ 0.0377 µM) | 1 µg/mL (≈ 1.88 µM) | 0.02 µg/mL (≈ 0.0377 µM) | 16 µg/mL (≈ 30.1 µM) | 0.04 µg/mL (≈ 0.0754 µM) | 0.001 µg/mL (≈ 0.00188 µM)
